Assay results as given in patent publication US20080262228A1, “Metabolites of 5-fluoro-8- quinoline and methods of preparation and uses thereof” (Wyeth, priority 2006, published 2008).
Where a name gives a salt, the structure may show the parent alone. One block for each compound: values may come before it.

Columns and labels:
in vitro = details: microsomes
Description: Experiments were conducted to determine the intrinsic clearance by substrate depletion for COMPOUND I metabolism in liver microsomes in the presence of NADPH and UDPGA. Incubations containing midazolam (0.2 μM with 0.1 mg/mL liver microsomes) or diclofenac (1 μM with 1 mg/mL liver microsomes) were also performed as positive controls for oxidative and glucuronidation activity, respectively. Sample preparation and incubation were performed on a MultiProbe IIEX Robotic Liquid Handling System (Perkin-Elmer, Shelton, Conn.) and a Micromix 5 (Packard, Downers Grove, Ill.). Samples were pre-incubated at 37° C. Control incubations were conducted under the same conditions without cofactors. At specified time points (0, 10, 20 and 30 min), 150 μL aliquots were transferred to tubes with 500 μL acetonitrile containing 30 ng/mL of the internal standard (furosemide) to precipitate the protein. Samples were centrifuged at 4° C. for 10 min at 3400 rpm (ThermoForma, Marietta, Ohio). The supernatant (400 μL) was transferred to a clean test tube and the acetonitrile evaporated under a stream of nitrogen in a Turbo Vap (Caliper Life Sciences, Hopkinton, Mass.). The samples were then reconstituted in 200 μL of 20% methanol in water and analyzed by LC/MS.
The HPLC system used was a Surveyor HPLC (Thermo Electron Corp., San Jose, Calif.). Separations were accomplished on a Supelcosil LC-C18 column (150×4.6 mm, 5 μm) (Supelco, Bellefonte, Pa.). The column temperature was maintained at ambient and the sample chamber was at 10° C. Mobile phase A was 5 mM ammonium acetate in water and mobile phase B was methanol.
The mass spectrometer used for microsomal stability analysis was a TSQ Quantum (Thermo Electron Corp.; San Jose, Calif.) equipped with an electrospray ionization (ESI) source and operated in the positive ionization mode.
Peak area ratios for COMPOUND I against the internal standard were used to express the % remaining at given time points. The percent of remaining COMPOUND I was calculated by dividing the […]. In vitro intrinsic clearance (CLint) of COMPOUND I was calculated by linear regression of log % remaining vs time plots using Microsoft Excel, 7.0 and normalizing to mg protein content. Metabolic half-life (t1/2) was calculated by dividing 0.693 by the intrinsic clearance.

human 5-HT1A receptor = biological target: T1, human 5-HT1A receptor (Homo sapiens, UniProt P08908); experiment: Forskolin-induced adenylate cyclase (cAMP) functional assay in h5-HT1A.CHO cells; format: cell-based
T1 construct: expressed in transfected cells
T1 sequence (P08908 1-422): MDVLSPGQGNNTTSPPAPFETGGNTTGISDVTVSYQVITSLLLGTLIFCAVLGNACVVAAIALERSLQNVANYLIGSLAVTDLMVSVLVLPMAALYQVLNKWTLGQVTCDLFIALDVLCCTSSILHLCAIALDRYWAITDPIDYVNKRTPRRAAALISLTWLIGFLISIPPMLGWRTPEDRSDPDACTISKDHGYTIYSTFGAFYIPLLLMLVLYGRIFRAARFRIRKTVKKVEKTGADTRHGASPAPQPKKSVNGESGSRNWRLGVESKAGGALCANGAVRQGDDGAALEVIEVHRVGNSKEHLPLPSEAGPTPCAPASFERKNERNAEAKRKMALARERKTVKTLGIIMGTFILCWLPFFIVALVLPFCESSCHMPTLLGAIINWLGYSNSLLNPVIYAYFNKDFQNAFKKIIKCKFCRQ
Description: A Ki value is reported. The in vitro functional activity of the compounds of this invention is determined by measuring the effect of the compound on forskolin-induced adenylate cyclase activity in the same cell line. 5-HT1A agonists, such as the full agonist 8-OH-DPAT, inhibit forskolin-induced adenylate cyclase activity, as measured by a reduction in cAMP levels. The compounds of this invention display agonist activity as shown by its ability to induce a decrease in cAMP levels. An EC50 value is reported and the maximum response of the test compound is reported as the percent of a full agonist response (the maximum response obtained with the full agonist 8-OH-DPAT=100%). This percent is expressed as an Emax value.
The PCR cloning of the human 5-HT1A receptor subtype from a human genomic library has been described previously (Chanda et al., Mol. Pharmacol., 43:516 (1993)). A stable Chinese hamster ovary cell line expressing the human 5-HT1A receptor subtype (h5-HT1A.CHO cells) was employed throughout this study. […]
Measurements can be performed as described in Dunlop, J. et al., supra. […] Functional activity is assessed by treating the cells with forskolin (1 uM final concentration) followed immediately by test compound (6 different concentrations) for an additional 10 min. at 37° C. […]

[1] = Turnover to metabolites in cryopreserved hepatocytes; details: hepatocytes, 20 μM
Description: Chromatographic analyses were performed with a Waters Alliance model 2695 HPLC system (Waters Corp., Milford, Mass.) that was equipped with a built-in autosampler. The column eluent was monitored with a model 996 diode array UV detector, set to monitor 250 nm, and a FloOne β Model A525 radioactivity flow detector (Perkin Elmer) with a 250 μL flow cell. Separation of the parent compound from metabolites was accomplished using a Discovery C18 column, 250×4.6 mm, 5 μm (Supelco, Bellefonte, Pa.) at an ambient temperature of approximately 20° C. Mobile phase A was 10 mM ammonium acetate (pH 4.5) and mobile phase B was acetonitrile and they were delivered at 1 mL/min using the gradient described in Table 10. The Ultima Flo M scintillant flow rate was 3 mL/min.
Flo-One analytical software (version 3.65) was utilized to integrate the radioactive peaks. Means and standard deviations were calculated using Microsoft Excel® 2000. Micromass MassLynx software (version 4.0, Waters Corp.) was used for control of LC/MS equipment and recording of data from LC/MS analyses.

- half-life at 1 μM (in vitro; both, human): 7 min
- microsomal CLint at 1 μM (in vitro; both, human): 100 µL/min/mg
- half-life at 1 μM (in vitro; male, Sprague-Dawley, rat): 2 min
- microsomal CLint at 1 μM (in vitro; male, Sprague-Dawley, rat): 332 µL/min/mg
- half-life at 1 μM (in vitro; male, beagle, dog): 13 min
- microsomal CLint at 1 μM (in vitro; male, beagle, dog): 55 µL/min/mg
- half-life at 1 μM (in vitro; male, monkey): 2 min
- microsomal CLint at 1 μM (in vitro; male, monkey): 312 µL/min/mg
SMILES: COc1cc(N2CCN(C3CCN(c4ccc(F)c5cccnc45)CC3)CC2)c2ncccc2c1 [COMPOUND I, 5-Fluoro-8-{4-[4-(6-methoxyquinolin-8-yl)piperazin-1-yl]piperidin-1-yl}quinoline]

- EC50 (human 5-HT1A receptor; decrease of forskolin-induced cAMP, read-out: EC50 value for in vitro agonist activity): 0.39 nM
- Emax (human 5-HT1A receptor; percent of full agonist response (8-OH-DPAT=100%)): 92%
SMILES: Oc1cc(N2CCN(C3CCN(c4ccc(F)c5cccnc45)CC3)CC2)c2ncccc2c1 [Metabolite M21, 8-{4-[1-(5-fluoroquinolin-8-yl)piperidin-4-yl]piperazin-1-yl}quinolin-6-ol trihydrochloride]

- average turnover to metabolites ([1]; both, human, 1 h): 13%
- average turnover to metabolites ([1]; both, human, 4 h): 18%
- average turnover to metabolites ([1]; dog, 1 h): 8%
- average turnover to metabolites ([1]; dog, 4 h): 12%
- average turnover to metabolites ([1]; male, rat, 1 h): 32%
- average turnover to metabolites ([1]; male, rat, 4 h): 38%
SMILES: COc1cc(N2CCN(C3CCN(c4ccc(F)c5cccnc45)CC3)CC2)c2ncccc2c1 [[^14C]COMPOUND I, [piperazine-^14C(U)]-5-fluoro-8-(4-(4-(6-methoxyquinolin-8-yl)piperazin-1-yl)piperidin-1-yl)quinoline trisuccinate]
